According to patent US6762181B1, “Aminomethylpyrrolidine derivatives having aromatic substituents” (Daiichi Pharmaceutical Co., Ltd., priority 1999, dated 2004):
≈ marks a conversion by molar mass, not a printed value. Read-outs that look alike come from different tables or passages of the source.

Tests used:
Experiment in all cases: Antibacterial activity (MIC), Japan Society of Chemotherapy standard method
Format in all cases: cell-based
Ser. marcescens 10100 = system: Ser. marcescens 10100
Description: (§1) Antibacterial activities of the compounds of the invention were measured in accordance with the standard method specified by the Japan Society of Chemotherapy, with the results shown in the following table as MIC values (μg/ml). In this connection, MIC values of levofloxacin (LVFX), ciprofloxacin (CPFX) and 5-amino-7-[3-(R)-[1-(S)-aminoethyl]pyrrolidin-1-yl]-6-fluoro-1-[2-(S)-fluoro-1-(R)-cyclopropyl]-8-methyl-1,4-dihydro-4-oxoquinoline-3-carboxylic acid (control drug 1) described in WO 9623782 are also shown for the sake of comparison with the MIC values of the compounds of the invention.

S. aureus 870307 = system: S. aureus 870307
Description: as §1

Ps. aeruginosa 32104 = system: Ps. aeruginosa 32104
Description: as §1

K. pneumoniae TYPE 1 = system: K. pneumoniae TYPE 1
Description: as §1

E. faecalis ATCC 19433 = system: E. faecalis ATCC 19433
Description: as §1

E. coli NIHJ = system: E. coli NIHJ
Description: as §1

X. maltophilia IID 1275 = system: X. maltophilia IID 1275
Description: as §1

S. aureus FDA 209P = system: S. aureus FDA 209P
Description: as §1

Str. pyrogenes G-36 = system: Str. pyrogenes G-36
Description: as §1

Ps. aeruginosa 32121 = system: Ps. aeruginosa 32121
Description: as §1

Str. pneumoniae J24 = system: Str. pneumoniae J24
Description: as §1

Pr. Vulgaris O8601 = system: Pr. Vulgaris O8601
Description: as §1

S. flexneri 2A 5503 = system: S. flexneri 2A 5503
Description: as §1

S. epidermidis 56500 = system: S. epidermidis 56500
Description: as §1

[1] = Serratia marcescens, 10100, Ser. marcescens 10100, read-out: MIC
[2] = Staphylococcus aureus, 870307, S. aureus 870307, read-out: MIC
[3] = Pseudomonas aeruginosa, 32104, Ps. aeruginosa 32104, read-out: MIC
[4] = Klebsiella pneumoniae, TYPE1, K. pneumoniae TYPE 1, read-out: MIC
[5] = Enterococcus faecalis, ATCC19433, E. faecalis ATCC 19433, read-out: MIC
[6] = Escherichia coli, read-out: MIC
[7] = Stenotrophomonas maltophilia, IID1275, X. maltophilia IID 1275, read-out: MIC
[8] = Staphylococcus aureus, FDA209P, read-out: MIC
[9] = Pseudomonas aeruginosa, 32121, Ps. aeruginosa 32121, read-out: MIC
[10] = Streptococcus pneumoniae, J24, Str. pneumoniae J24, read-out: MIC
[11] = Proteus vulgaris, read-out: MIC
[12] = Shigella flexneri, 2A5503, S. flexneri 2A 5503, read-out: MIC
[13] = Staphylococcus epidermidis, read-out: MIC

Structure (SMILES) | MIC (S. aureus 870307; S. aureus 870307) | MIC (K. pneumoniae TYPE 1; K. pneumoniae TYPE 1) | MIC (E. faecalis ATCC 19433; E. faecalis ATCC 19433) | MIC (X. maltophilia IID 1275; X. maltophilia IID 1275) | MIC (Str. pyrogenes G-36) | MIC (Ps. aeruginosa 32121; Ps. aeruginosa 32121) | MIC (Ser. marcescens 10100; [1]) | MIC (S. aureus 870307; [2]) | MIC (Ps. aeruginosa 32104; [3]) | MIC (K. pneumoniae TYPE 1; [4]) | MIC (E. faecalis ATCC 19433; [5]) | MIC (E. coli NIHJ; [6]) | MIC (X. maltophilia IID 1275; [7]) | MIC (S. aureus FDA 209P; [8]) | MIC (Str. pyrogenes G-36; read-out: MIC) | MIC (Ps. aeruginosa 32121; [9]) | MIC (Str. pneumoniae J24; [10]) | MIC (Pr. Vulgaris O8601; [11]) | MIC (S. flexneri 2A 5503; [12]) | MIC (S. epidermidis 56500; [13]) | other results
C[C@H]1COc2c(N3CC[C@@H](C(N)c4ccccc4)C3)c(F)cc3c(=O)c(C(=O)O)cn1c23 (stereo partly drawn) [Example 4, 10-[3-(R)-(1-Amino-1-Phenylmethyl)-1-Pyrrolidinyl]-9-Fluoro-2,3-Dihydro-3-(S)-Methyl-7-Oxo-7H-Pyrido [1,2,3,-de] [1,4] Benzoxazine-6-Carboxylic Acid] | ≦0.003 μg/ml | 0.025 µg/mL (≈ 0.0571 µM) | 0.006 µg/mL (≈ 0.0137 µM) | 0.05 µg/mL (≈ 0.114 µM) | ≦0.003 μg/ml | 0.05 µg/mL (≈ 0.114 µM) |  |  |  |  |  |  |  |  |  |  |  |  |  |  | MIC (Ser. marcescens 10100; Ser. marcescens 10100): 0.025 µg/mL (≈ 0.0571 µM); MIC (Ps. aeruginosa 32104; Ps. aeruginosa 32104): 0.1 µg/mL (≈ 0.229 µM); MIC (E. coli NIHJ): ≦0.003 μg/ml; MIC (S. aureus FDA 209P): ≦0.003 μg/ml; MIC (Str. pneumoniae J24; Str. pneumoniae J24): ≦0.003 μg/ml; MIC (Pr. Vulgaris O8601): 0.013 µg/mL (≈ 0.0297 µM); MIC (S. flexneri 2A 5503; S. flexneri 2A 5503): ≦0.003 μg/ml; MIC (S. epidermidis 56500): ≦0.003 μg/ml
COc1c(N2CC[C@@H](C(N)c3ccccc3)C2)ccc2c(=O)c(C(=O)O)cn([C@@H]3C[C@@H]3F)c12 (stereo partly drawn) [Example 6, 7-[3-(R)-(1-Amino-1-Phenylmethyl)-1-Pyrrolidinyl]-1-[2-(S)-Fluoro-1-(R)-Cyclopropyl]-1,4-Dihydro-8-Methoxy-4-Oxoquinoline-3-Carboxylic Acid] |  |  |  |  |  |  | 0.1 µg/mL (≈ 0.221 µM) | 0.013 µg/mL (≈ 0.0288 µM) | 0.2 µg/mL (≈ 0.443 µM) | 0.05 µg/mL (≈ 0.111 µM) | 0.025 µg/mL (≈ 0.0554 µM) | 0.006 µg/mL (≈ 0.0133 µM) | 0.1 µg/mL (≈ 0.221 µM) | ≤ 0.003 µg/mL | ≤ 0.003 µg/mL | 0.1 µg/mL (≈ 0.221 µM) | ≤ 0.003 µg/mL | 0.1 µg/mL (≈ 0.221 µM) | 0.013 µg/mL (≈ 0.0288 µM) | 0.006 µg/mL (≈ 0.0133 µM) | 
Cc1c(N2CC[C@@H]([C@H](C)N)C2)c(F)c(N)c2c(=O)c(C(=O)O)cn([C@@H]3C[C@@H]3F)c12 [Control drug 1, 5-amino-7-[3-(R)-[1-(S)-aminoethyl]pyrrolidin-1-yl]-6-fluoro-1-[2-(S)-fluoro-1-(R)-cyclopropyl]-8-methyl-1,4-dihydro-4-oxoquinoline-3-carboxylic acid, reference compound] |  |  |  |  |  |  | 0.1 µg/mL (≈ 0.246 µM) | 0.025 µg/mL (≈ 0.0615 µM) | 0.1 µg/mL (≈ 0.246 µM) | 0.05 µg/mL (≈ 0.123 µM) | 0.025 µg/mL (≈ 0.0615 µM) | 0.006 µg/mL (≈ 0.0148 µM) | 0.2 µg/mL (≈ 0.492 µM) | ≤ 0.003 µg/mL | ≤ 0.003 µg/mL | 0.05 µg/mL (≈ 0.123 µM) | ≤ 0.003 µg/mL | 0.013 µg/mL (≈ 0.032 µM) | 0.006 µg/mL (≈ 0.0148 µM) | ≤ 0.003 µg/mL | 
Nc1c(F)c(N2CC[C@@H](C(N)c3ccccc3)C2)c(F)c2c1c(=O)c(C(=O)O)cn2[C@@H]1C[C@@H]1F (single isomer, unassigned) [Example 1] | 0.025 µg/mL (≈ 0.0529 µM) | 0.05 µg/mL (≈ 0.106 µM) | 0.05 µg/mL (≈ 0.106 µM) | 0.1 µg/mL (≈ 0.212 µM) | 0.013 µg/mL (≈ 0.0275 µM) | 0.1 µg/mL (≈ 0.212 µM) | 0.1 µg/mL (≈ 0.212 µM) |  | 0.2 µg/mL (≈ 0.423 µM) |  |  | ≤ 0.003 µg/mL |  | ≤ 0.003 µg/mL |  |  | 0.006 µg/mL (≈ 0.0127 µM) |  | 0.006 µg/mL (≈ 0.0127 µM) | ≤ 0.003 µg/mL | MIC (Pr. Vulgaris O8601): 0.1 µg/mL (≈ 0.212 µM)
O=C(O)c1cn(C2CC2)c2cc(N3CCNCC3)c(F)cc2c1=O [CPFX, ciprofloxacin, reference compound] |  |  |  |  |  |  | 0.025 µg/mL (≈ 0.0754 µM) | 3.13 µg/mL (≈ 9.45 µM) | 0.05 µg/mL (≈ 0.151 µM) | 0.025 µg/mL (≈ 0.0754 µM) | 0.78 µg/mL (≈ 2.35 µM) | ≤ 0.003 µg/mL | 0.78 µg/mL (≈ 2.35 µM) | 0.1 µg/mL (≈ 0.302 µM) | 1.56 µg/mL (≈ 4.71 µM) | 0.025 µg/mL (≈ 0.0754 µM) | 0.1 µg/mL (≈ 0.302 µM) | ≤ 0.003 µg/mL | 0.006 µg/mL (≈ 0.0181 µM) | 0.2 µg/mL (≈ 0.604 µM) | 
